Assay results as given in patent publication US20030232400A1, “Methods of screening subjects for expression of soluble receptors of vascular endothelial growth factor (VEGF) for use in managing treatment and determining prognostic outcome” (priority 2002, published 2003).
“Also recorded” adds a separate entry of the source.

Experiments:
[1] = system: metastatic colorectal cancer; conditions: cited from earlier work
[2] = Preclinical absorption after subcutaneous administration; format: in vivo; conditions: subcutaneous (SC) administration
Source text: (§1) A reduction of metastasis in a human KM12 colorectal cancer xenograft and reduced metastasis and increase in survival in the murine mammary (4T1) model were also observed with ANGIOZYME treatment.

[3] = system: murine mammary (4T1) model; experiment: Murine mammary (4T1) model; format: in vivo
Source text: as §1

sVEGFR-1 = experiment: Phase II monotherapy trial RPI0001, sVEGFR-1 level; format: in vivo, human; conditions: monotherapy 100 mg/m^2 daily SC, metastatic breast cancer patients, by week 6
Description: (§2) In a Phase II monotherapy ANGIOZYME trial, 45 late-stage metastatic breast cancer patients who had failed multiple prior treatments received 100 mg/m^2 ANGIOZYME by daily SC injection. Due of the critical nature of the disease, most progressed and discontinued drug at the first evaluation (week 6). […] Clinical and biomarker results are summarized.
(§3) In RPI0001, ANGIOZYME monotherapy decreased sVEGFR-1 levels in the metastatic breast cancer setting, although there were no responses in this late-stage disease population.

LLC-HM primary tumor = LLC-HM primary tumor model, preclinical studies in mice; format: in vivo
[4] = system: HEY ovarian, SK-MEL-1 melanoma and ACHN renal carcinoma cell lines; experiment: Murine dermis model, peritumoral vessels; format: in vivo
[5] = 13-week toxicology studies; format: in vivo; conditions: doses up to 300 mg/m^2/d
[6] = Phase I clinical trials, tolerability; format: in vivo, human; conditions: doses up to 300 mg/m^2 administered IV or SC
[7] = system: late-stage metastatic breast cancer; experiment: Phase II monotherapy trial RPI0001, tumor response; format: in vivo, human
Description: as §2, §3

[8] = Phase II study RPI0003 (IFL + ANGIOZYME), adverse events; format: in vivo, human
Description: Beginning on study day 4, patients received daily doses of 100 mg/m^2 ANGIOZYME by subcutaneous injection. Unidimensional tumor measurements were obtained from CT scans after 12 and 24 weeks of treatment. Responses were then confirmed 4 weeks following initial response. ANGIOZYME treatment continued until disease progression.
Adverse event reporting for RPI0003 is ongoing for the 6 patients continuing to receive ANGIOZYME in the maintenance protocolis. […] One patient has discontinued RPI0003 due to an ISR.
Of the MedDRA organ system classes most likely to be affected by antiangiogenic drugs, only the vascular complications (DVT/PE) may appear in excess in this study. […] This observation was communicated to the FDA in September, 2002. Patients continue in the maintenance trial with all PEs and DVTs being classified as serious and ANGIOZYME-related to ensure complete reporting of these events.

[9] = system: human KM12 colorectal cancer xenograft; experiment: Human KM12 colorectal cancer xenograft, metastasis; format: in vivo, mice
Source text: as §1

## irinotecan/5-fluorouracil/leucovorin [IFL]
[1]; IFL alone, patients who received IFL, good performance status, CT at 12 or 24 weeks
  response rate: ~40%
[1]; IFL arm of the Pharmacia study
  Median time to progression (TTP): > 7.0 months
[1]; N = 192, Pharmacia 0038
  At least Stable at Week 12: 83%
  At least Stable at Week 24: 80%
  Best Overall Response (Week 24): 37%
  Best Overall Response, Confirmed at Week 12: 35%
  Best Overall Response, Unconfirmed at Week 12: 48%
  Discontinued by Week 12 Due to Disease Progression: 12%

## ANGIOZYME: stabilized ribozyme that targets the pre-mRNA of vascular endothelial growth factor receptor-1 (VEGFR-1); structure in FIG. 8 (GAGUUGCUGAUGAGGCCGAAAGGCCGAAAGUCUG; stabilized ribozyme, chemical modifications not given here)
[2]
  absorption: well absorbed
[3]
  metastasis: reduced
  survival: increase
sVEGFR-1
  change in sVEGFR-1: significant decrease; also recorded: decreased
LLC-HM primary tumor
  growth of the LLC-HM primary tumor: inhibited the growth of the LLC-HM primary tumor in a dose-dependent manner
LLC-HM primary tumor; LLC-HM model
  mean vascular density in tumor sections: decreased
  number of lung metastases: reduced
[4]
  interaction with interferon treatment: synergistic
[4]; HEY, SK-MEL-1, ACHN cell lines
  number of peritumoral vessels: reduced
[5]
  tolerability: well tolerated
[6]
  tolerability: well tolerated
[7]
  tumor responses: no responses
[8]; RPI0003
  patients discontinued due to an injection site reaction (ISR): One
[8]; RPI0003, daily SC injection in combination with IFL
  tolerability: well tolerated
[8]; RPI0003, with the possible exception of increased vascular complications
  toxicity added to the chemotherapy: added no toxicity
[8]; RPI0003 and all other ANGIOZYME studies
  most frequent adverse experiences: injection site reactions
[9]
  metastasis: reduction
